Measured values: patent publication US4720506A, “Immunomodulating agent” (Nippon Shinyaku Company, Limited, priority 1982, dated 1988)

Assays:
[1] = test system: Methylated Human Albumin induced Delayed Type Hypersensitivity; experiment: Methylated human albumin induced delayed type hypersensitivity (footpad swelling); format: in vivo, mice (C3H); conditions: 4 days; for response vs control in vivo at 30 mg/kg / response vs control in vivo at 100 mg/kg / response vs control in vivo at 300 mg/kg: Mus musculus, 96 h
Method: Effect on Methylated Human Albumin induced Delayed Type Hypersensitivity
The medicament was administered orally for continuous 4 days including the immunization-day. On the 4th day from the immunization day, 25 μl of 0.1% methylated human albumin aqueous solution was subcutaneously injected to the footpad. After 24 hours, the thickness of the left and right footpad were measured, and the footpad swelling due to the delayed type hypersensitivity was represented as the difference between the thickness of the left and right footpad. The footpad swelling of the medicament-administration group was compared with that of physiological saline solution-administration group.

mice = experiment: Acute toxicity in mice; format: in vivo; conditions: 7th day
Method: The medicament was suspended in 3% "Tween-80" and the suspension was administered orally or intraperitonealy at a dose shown in Table 1 to mice (ddY weighing 20-25 g).

[2] = test system: Sheep Erythrocytes induced Delayed Type Hypersensitivity; experiment: Sheep erythrocytes induced delayed type hypersensitivity (footpad swelling); format: in vivo, mice (ddY); conditions: Table 4, oral, 4 days, 24 hours after challenge
Method: Effect on Sheep Erythrocytes induced Delayed Type Hypersensitivity
40 μl of Sheep erythrocytes adjusted to the concentration of 1×10^7 /40 μl was subcutaneously injected to the right footpad of mice (ddY weighing 25-30 g) and the medicament was administered orally for continuous 4 days including the day, on which sheep erythrocytes were administered.
On the 4th day from the administration day of sheep erythrocytes, 40 μl of sheep erythrocytes adjusted to the concentration of 5×10^8 /40 μl was subcutaneously injected to the left footpad. After 24 hours, both of the thickness of the right and left footpad were measured. Footpad swelling due to the delayed type hypersensitivity was recognized as the difference between the thickness of the left and right footpad. The footpad swelling of the medicament-administration group was compared with that of physiological saline solution-administration group (control group).

[3] = test system: Plaque-Forming Cells in Spleen against Sheep Erythrocytes; experiment: Plaque-forming cells in spleen against sheep erythrocytes in mice; format: in vivo, mice (Balb/c); conditions: oral, 4 days; for PFC, % Control: vs physiological saline
Method: Effect on Plaque-forming Cells in Spleen against Sheep Erythrocytes in mice
Balb/c mice of 5 weeks old were intravenously immunized with 1×10^8 sheep erythrocytes/mouse. 5 mice were used per group. Medicament was orally administered for 4 days from the day when the mice were immunized. Mice were sacrificed on the 5th day and the numbers of plaque-forming cells (PFC) in the spleen against sheep erythrocytes were determined by Fujiwara's modified method of Cunningham's method ["Method in Immunological Experiment A" edited by Japanese Society for Immunology, page 1272 (1974)].

| Compound | Footpad swelling, mean value ± standard error ([1]; Experiment 1, oral, 300 mg/kg) [× 0.01 mm] | response vs control in vivo at 300 mg/kg ([1]; po, Experiment 1, 300 mg/kg) [%] | Mortality (mice; intraperitoneal, 1,000 mg/kg) | Mortality (mice; oral, 5,000 mg/kg) | % Control of footpad swelling ([2]; 100 mg/kg) [%] | Footpad swelling, mean value ± standard error ([1]; Experiment 2, oral, 100 mg/kg) [× 0.01 mm] | Footpad swelling, mean value ± standard error ([1]; Experiment 2, oral, 30 mg/kg) [× 0.01 mm] | Footpad swelling, mean value ± standard error ([1]; Experiment 2, oral, 300 mg/kg) [× 0.01 mm] | response vs control in vivo at 30 mg/kg ([1]; po, Experiment 2, 30 mg/kg) [%] | response vs control in vivo at 100 mg/kg ([1]; po, Experiment 2, 100 mg/kg) [%] | response vs control in vivo at 300 mg/kg ([1]; po, Experiment 2, 300 mg/kg) [%] | other results |
| --- | --- | --- | --- | --- | --- | --- | --- | --- | --- | --- | --- | --- |
| CC(C)C(=O)Nc1ccc(CC(=O)O)cc1 [Compound 13] | 58.5 ± 2.4 | 92.4 | 1/5 | 0/5 | – | – | – | – | – | – | – | Footpad swelling, mean value ± standard error ([1]; Experiment 1, oral, 30 mg/kg): 57.2 ± 1.9 × 0.01 mm; Footpad swelling, mean value ± standard error ([1]; Experiment 1, oral, 100 mg/kg): 58.2 ± 1.9 × 0.01 mm; response vs control in vivo at 30 mg/kg ([1]; po, Experiment 1, 30 mg/kg): 90.4%; response vs control in vivo at 100 mg/kg ([1]; po, Experiment 1, 100 mg/kg): 91.9% |
| CCOC(=O)Cc1ccc(NC(C)=O)cc1 [Compound 4, Ethyl 4-acetylaminophenylacetate] | – | – | – | – | 93.8 | – | – | – | – | – | – | % Control of footpad swelling ([2]; 30 mg/kg): 91.5%; % Control of footpad swelling ([2]; 300 mg/kg): 68.4%; Footpad swelling, mean value ± standard error ([1]; Experiment 3, oral, 30 mg/kg): 48.3 ± 2.6 × 0.01 mm; Footpad swelling, mean value ± standard error ([1]; Experiment 3, oral, 100 mg/kg): 49.4 ± 3.5 × 0.01 mm; Footpad swelling, mean value ± standard error ([1]; Experiment 3, oral, 300 mg/kg): 56.5 ± 2.9 × 0.01 mm; response vs control in vivo at 30 mg/kg ([1]; po, Experiment 3, 30 mg/kg): 75.5%; response vs control in vivo at 100 mg/kg ([1]; po, Experiment 3, 100 mg/kg): 77.2%; response vs control in vivo at 300 mg/kg ([1]; po, Experiment 3, 300 mg/kg): 88.3% |
| Cn1cnc([N+](=O)[O-])c1Sc1ncnc2nc[nH]c12 [Azathioprine, reference compound] | – | – | – | – | 49.0 | 41.4 ± 1.5 | – | – | – | – | – | response vs control in vivo at 100 mg/kg ([1]; Experiment 2, oral, 100 mg/kg): 70.9% |
| CC(=O)Nc1ccc(C(C)C(=O)O)cc1 (stereo not drawn) [Compound 12, 2-(4-Acetylaminophenyl)propionic acid] | – | – | 0/5 | 0/5 | – | 52.1 ± 1.5 | 54.5 ± 1.7 | 52.4 ± 1.9 | 93.2 | 89.2 | 89.7 | – |
| CCOC(=O)Cc1ccc(N)cc1 [Compound 1, Ethyl p-aminophenylacetate] | – | – | 1/5 | – | 85.9 | – | – | – | – | – | – | % Control of footpad swelling ([2]; 30 mg/kg): 79.8%; % Control of footpad swelling ([2]; 300 mg/kg): 77.9%; PFC, mean value ± standard error ([3]; Table 3, 30 mg/kg): 89.4 ± 10.4 × 3,125/spleen; PFC, % Control ([3]; Table 3, 30 mg/kg): 135%; PFC, mean value ± standard error ([3]; Table 3, 100 mg/kg): 60.6 ± 8.6 × 3,125/spleen; PFC, % Control ([3]; Table 3, 100 mg/kg): 91%; PFC, mean value ± standard error ([3]; Table 3, 300 mg/kg): 82.0 ± 5.2 × 3,125/spleen; PFC, % Control ([3]; Table 3, 300 mg/kg): 123%; Mortality (mice; oral, 3,000 mg/kg): 0/5 |
| CCCC(=O)Nc1ccc(CC(=O)O)cc1 [Compound 14, 4-n-Butyrylaminophenylacetic acid] | – | – | 0/5 | – | – | 51.8 ± 1.4 | 50.9 ± 2.0 | 56.7 ± 1.5 | 87.2 | 88.7 | 97.1 | – |
| Cc1ccc(C(=O)Nc2ccc(CC(=O)O)cc2)cc1 [Compound 15, 4-(4-Methylbenzoylamino)phenylacetic acid] | 57.4 ± 1.5 | 90.7 | 5/5 | 5/5 | – | – | – | – | – | – | – | Footpad swelling, mean value ± standard error ([1]; Experiment 1, oral, 30 mg/kg): 54.2 ± 1.7 × 0.01 mm; Footpad swelling, mean value ± standard error ([1]; Experiment 1, oral, 100 mg/kg): 56.7 ± 1.8 × 0.01 mm; response vs control in vivo at 30 mg/kg ([1]; po, Experiment 1, 30 mg/kg): 85.6%; response vs control in vivo at 100 mg/kg ([1]; po, Experiment 1, 100 mg/kg): 89.6%; Mortality (mice; intraperitoneal, 300 mg/kg): 0/5; Mortality (mice; oral, 1,000 mg/kg): 0/5 |
| CC(=O)Nc1ccc(C(C)(C)C(=O)O)cc1 [Compound 11, 2-(4-Acetylaminophenyl)-2-methylpropionic acid] | – | – | 0/5 | 0/5 | – | 55.4 ± 1.8 | 54.5 ± 1.7 | 51.3 ± 2.3 | 93.3 | 94.9 | 87.8 | – |
| CC(=O)Nc1ccc(CC(=O)O)cc1 [Compound 10, 4-Acetylaminophenylacetate] | 44.5 ± 1.6 | 70.3 | 0/5 | 0/5 | 85.7 | 41.8 ± 2.5 | 46.1 ± 1.7 | 42.3 ± 1.8 | 78.9 | 71.6 | 72.4 | % Control of footpad swelling ([2]; 30 mg/kg): 77.0%; % Control of footpad swelling ([2]; 300 mg/kg): 71.6%; PFC, mean value ± standard error ([3]; Table 2, 30 mg/kg): 116.4 ± 8.64 × 2,500/spleen; PFC, % Control ([3]; Table 2, 30 mg/kg): 181%; PFC, mean value ± standard error ([3]; Table 2, 100 mg/kg): 107.2 ± 10.5 × 2,500/spleen; PFC, % Control ([3]; Table 2, 100 mg/kg): 167%; PFC, mean value ± standard error ([3]; Table 2, 300 mg/kg): 82.2 ± 7.0 × 2,500/spleen; PFC, % Control ([3]; Table 2, 300 mg/kg): 128% |
| CCOC(=O)Cc1ccc(NC(=O)C(C)C)cc1 [Compound 6, Ethyl 4-(isobutyrylamino)phenylacetate] | 56.8 ± 2.2 | 89.7 | 0/5 | 1/5 | – | – | – | – | – | – | – | Footpad swelling, mean value ± standard error ([1]; Experiment 1, oral, 30 mg/kg): 59.0 ± 1.8 × 0.01 mm; Footpad swelling, mean value ± standard error ([1]; Experiment 1, oral, 100 mg/kg): 55.6 ± 1.2 × 0.01 mm; response vs control in vivo at 30 mg/kg ([1]; po, Experiment 1, 30 mg/kg): 93.2%; response vs control in vivo at 100 mg/kg ([1]; po, Experiment 1, 100 mg/kg): 87.8% |
| CCOC(=O)C(C)c1ccc(NC(C)=O)cc1 (stereo not drawn) [Compound 9, Ethyl 2-(4-acetylaminophenyl)propionate] | – | – | 0/5 | – | – | 55.3 ± 2.0 | 51.4 ± 1.8 | 56.0 ± 2.0 | 88 | 94.7 | 95.9 | Mortality (mice; oral, 1,500 mg/kg): 0/5 |
